Test results: US20110045459A1, “Molecular determinants of EGFR kinase inhibitor response in glioblastoma” (priority 2005, published 2011)
Entries after “also recorded” stand apart in the source; their conditions may differ.

Tested on: U87MG glioblastoma cells
Assay: Relative sensitivity to erlotinib of U87MG lines expressing PTEN, EGFR, EGFRvIII (crystal violet)
Assay type: cell-based
Settings: erlotinib 0-10 μM, 10-14 days, U87-PTEN
Method: FIG. 3. […] 1000 cells/well of each cell line was seeded into 96-well plates in 8 replicates. […] Experiments were repeated 3 times in 8 replicates for each condition.
Following retroviral transduction we selected the following stable cell lines: U87-PTEN, U87-EGFR, U87-PTEN-EGFR, U87-EGFRvIII and U87-PTEN-EGFRvIII.
Functional analysis of effect of EGFR, EGFRvIII and PTEN coexpression: Human EGFR and EGFRvIII cDNAs were retrovirally introduced into U87MG and U87MG-PTEN over-expressing cells and selected for antibiotic resistance. Multiple stable clones were analyzed for the expression of PTEN, EGFR or EGFRvIII by immunoblot. […] The background reading of the wells containing medium alone was subtracted from experimental wells.

With C#Cc1cccc(Nc2ncnc3cc(OCCOC)c(OCCOC)cc23)c1 [Erlotinib] the “sensitization of glioblastoma cells to erlotinib” value was “EGFRvIII and PTEN co-expression sensitizes glioblastoma cells to erlotinib; also recorded: EGFRvIII sensitized glioblastoma cells to erlotinib, but only when PTEN was co-expressed”.
